Data published in patent publication US20240115649A1, “CASPASE INHIBITION TO ENHANCE REGENERATION AND REPAIR AFTER SKIN OR GUT INJURY AND TO TREAT BACTERIAL OR VIRAL INFECTIONS” (The Johns Hopkins University, priority 2020, published 2024).

Tests used:
[1] = system: S. aureus USA300 LAC::lux; experiment: Bacterial growth curve kinetics, S. aureus broth cultures; assay type: cell-based; conditions: 10, 100 and 1,000 μg/mL; 10 hours; vs vehicle
Staphopain A (sspP) = molecular target: T1, Staphopain A (sspP) (Staphylococcus aureus, UniProt P81297); experiment: Protease activity assays and protein blot, Staphopain A; assay type: biochemical, S. aureus
T1 construct: purchased CUSABIO

Staphopain B (sspB) = molecular target: T2, Staphopain B (sspB) (Staphylococcus aureus, UniProt P0C1S6); experiment: Protease activity assays and protein blot, Staphopain B; assay type: biochemical, S. aureus
T2 construct: purchased CUSABIO

neogenic hair follicles = experiment: Wound Induced Hair Neogenesis (WIHN) assay; assay type: in vivo, mice
Experimental: Wound Induced Hair Neogenesis (WIHN) Assay. All in vivo experimental surgical procedures were performed as previously characterized ^1,2,6-8. In short, after exposure to vaporizing anesthesia (Baxter, Isoflurane) the dorsal side of male and female 3-week-old (21 days) mice were shaved at approximately 8-10 g of weight. Using surgical scissors, approximately 1.26 cm^2×1.25 cm^2 of skin was excised creating wounds deep into the fascia. At 3 days post-wounding, a single dose (50 μl) of 100 μg/mL high molecular weight (HMW) polyinosinic-polycytidylic acid (Poly (I:C)) (Invivogen, tlrl-pic) was administered underneath the scab site via injection in both wild-type and transgenic mice as previously described^2,8. For functional experiments characterizing IL-36 on WIHN, a single dose (50 μl) of 1 μg/mL recombinant mouse IL-36α protein (R&D Systems, 7059-ML/CF) was injected underneath the scab site at 7 days post-wounding. For rescue experiments using the small molecule, broad spectrum pan-caspase inhibitor, 20 ul of 5 mg/mL Q-VD-OPh (in DMSO) was diluted 130 μL of phosphate-buffered saline (PBS) (1.33 mM final concentration) and injected intraperitoneally in mice 24 hours prior to wounding and approximately 10 days after wounding (scab detachment).
Immunofluorescence, immunocytochemistry, and immunohistochemistry.

BMDMs = experiment: BMDM cultures with live S. aureus ± caspase inhibitors; conditions: Q-VD-OPH 10 μg/mL, live S. aureus 6 hours
[2] = system: mouse epithelial keratinocytes; experiment: Mouse epithelial keratinocyte culture (qRT-PCR, immunoblot)

T1 sequence (P81297 215-388): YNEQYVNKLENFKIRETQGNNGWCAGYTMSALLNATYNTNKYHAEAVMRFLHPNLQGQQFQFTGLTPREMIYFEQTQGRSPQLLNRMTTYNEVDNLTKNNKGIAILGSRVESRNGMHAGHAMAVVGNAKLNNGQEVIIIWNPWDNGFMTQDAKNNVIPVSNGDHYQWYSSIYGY
T2 sequence (P0C1S6 220-393): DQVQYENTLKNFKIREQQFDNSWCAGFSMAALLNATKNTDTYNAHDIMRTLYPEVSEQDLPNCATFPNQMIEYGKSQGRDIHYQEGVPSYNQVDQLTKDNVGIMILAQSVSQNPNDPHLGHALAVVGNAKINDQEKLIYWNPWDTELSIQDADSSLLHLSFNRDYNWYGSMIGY

**Q.** Which “in vitro absorbance, bioluminescence and CFU (direct antibacterial activity)” value [1] does the source give for CC(C)[C@H](NC(=O)c1ccc2ccccc2n1)C(=O)N[C@@H](CC(=O)O)C(=O)COc1c(F)cccc1F [Q-VD-OPH, Quinoline-val-asp-difluorophenoxymethyl ketone] here?
**A.** The value was “no differences in in vitro absorbance, bioluminescence and CFU”.

**Q.** What about the “physical conformational changes or degradation of sspP (protein blot)” value (Staphopain A (sspP); 2 hours at 37° C.) of the same compound?
**A.** Its value is “did not induce any physical conformational changes or cause degradation”.

**Q.** And the “activity of sspP on gelatinase activity or elastin proteolysis” value (Staphopain A (sspP); Q-VD-OPH 10 μg/mL, 20 hours)?
**A.** Its value is “did not affect the activity”.

**Q.** And the “physical conformational changes or degradation of sspB (protein blot)” value (Staphopain B (sspB); 2 hours at 37° C.)?
**A.** The value was “did not induce any physical conformational changes or cause degradation”.

**Q.** What about the “activity of sspB on gelatinase activity or elastin proteolysis” value (Staphopain B (sspB); Q-VD-OPH 10 μg/mL, 20 hours) of the same compound?
**A.** The value was “did not affect the activity”.

**Q.** And the WIHN (neogenic hair follicles; Il36r^−/− mice treated with Q-VD-OPh)?
**A.** Its WIHN is “do not”.

**Q.** And the WIHN (neogenic hair follicles; wild-type mice, Q-VD-OPh 1.33 mM i.p. 24 hours prior to and ~10 days after wounding, vs vehicle)?
**A.** Its WIHN is “more WIHN”.

**Q.** What about the “IL-36α in the epidermis of re-epithelialized wounds” value (neogenic hair follicles; wild-type mice, Q-VD-OPh i.p., vs vehicle) of the same compound?
**A.** The value was “higher levels of IL-36α in the epidermis of re-epithelialized wounds”.

**Q.** And the “necroptosis (western blot for pMLKL and MLKL)” value (BMDMs)?
**A.** The value was “necroptosis was increased”.

**Q.** And the “percentages of TNF+ BMDMs” value (BMDMs; Emricasan 9 μg/mL)?
**A.** Its value is 33.53%.

**Q.** And the “viable cells (Zombie UV negative cells)” value (BMDMs; Emricasan 9 μg/mL, no significant differences vs no treatment)?
**A.** Its value is roughly 80%.

**Q.** What about the “IL-36 receptor (IL36r) expression” value ([2]; 48 hrs treatment) of the same compound?
**A.** The value was “not detected”.

**Q.** And the “IL-36 receptor antagonist (IL-36m) protein or mRNA levels” value ([2]; 48 hrs treatment)?
**A.** The value was “No differences”.

**Q.** What about the “IL-36α mRNA” value ([2]; 48 hrs treatment) of the same compound?
**A.** Its value is “higher levels of IL-36α mRNA and protein”.

**Q.** What about the Tlr3 expression ([2]; 48 hrs treatment) of the same compound?
**A.** Its Tlr3 expression is “again elevated”.

**Q.** What about the “caspase gene mRNA (inflammatory caspases 1 and 4)” value ([2]; 48 hrs treatment) of the same compound?
**A.** The value was “compensatory mRNA increases of caspase genes”.

**Q.** What about the “IL-36α protein (whole-cell lysates)” value ([2]; mouse epithelial keratinocytes) of the same compound?
**A.** Its value is “higher levels of IL-36α mRNA and protein”.
